Counter-ions that a name gives are not always drawn.
Molecular target: T1, AR (Homo sapiens, UniProt P10275)
T1 construct: endogenous in cells; host or cells: VCaP cells
T1 sequence (P10275 1-920): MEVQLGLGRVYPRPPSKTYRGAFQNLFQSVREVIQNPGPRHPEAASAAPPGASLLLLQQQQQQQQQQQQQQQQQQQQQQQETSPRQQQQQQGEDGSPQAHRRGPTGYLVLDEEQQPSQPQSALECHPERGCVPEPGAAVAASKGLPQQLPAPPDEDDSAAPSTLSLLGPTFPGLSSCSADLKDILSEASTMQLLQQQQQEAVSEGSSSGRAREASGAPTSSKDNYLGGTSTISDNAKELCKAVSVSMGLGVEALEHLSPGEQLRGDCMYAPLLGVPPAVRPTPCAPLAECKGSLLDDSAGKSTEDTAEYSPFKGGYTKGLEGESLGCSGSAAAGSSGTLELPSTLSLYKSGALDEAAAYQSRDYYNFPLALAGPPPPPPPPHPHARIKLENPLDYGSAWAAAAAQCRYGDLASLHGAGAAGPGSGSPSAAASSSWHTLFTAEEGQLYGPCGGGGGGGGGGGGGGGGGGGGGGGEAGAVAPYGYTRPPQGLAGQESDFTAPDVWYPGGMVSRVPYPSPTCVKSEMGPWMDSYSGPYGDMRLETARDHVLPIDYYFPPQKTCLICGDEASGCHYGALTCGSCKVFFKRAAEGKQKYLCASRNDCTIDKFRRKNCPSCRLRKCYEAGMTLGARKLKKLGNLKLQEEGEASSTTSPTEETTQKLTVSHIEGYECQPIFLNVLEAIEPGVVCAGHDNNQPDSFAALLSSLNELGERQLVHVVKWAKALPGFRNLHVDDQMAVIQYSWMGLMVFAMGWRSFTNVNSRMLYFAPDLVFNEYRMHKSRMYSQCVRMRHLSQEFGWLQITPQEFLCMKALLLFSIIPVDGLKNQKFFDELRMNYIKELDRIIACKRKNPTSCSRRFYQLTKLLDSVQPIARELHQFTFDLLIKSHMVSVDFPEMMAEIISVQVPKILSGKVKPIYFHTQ
Assay: VCAP AR Degradation Assay
Type: cell-based
Details: for Y (AR degradation efficiency, % of DMSO control): class symbols *; for DC50: class symbols A-C, read-out: DC50
Procedure, shortened: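 VCaP cells treated 24 h at 37 °C with a 10-point 1:3 series (top 5 μM final; 0.1% DMSO control). Lysate AR measured by sandwich ELISA, normalized to DMSO as percent of control; DC50, EC50 and lowest AR level (Y) from four-parameter logistic fit.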

Compound	Y (AR degradation efficiency, % of DMSO control)	DC50
CC1(C)C(=O)N(c2ccc(C#N)c(C(F)(F)F)c2)C(=S)N1c1ccc(OCCN2CCN(CC(=O)Nc3cc(Cl)cc(NC4CCC(=O)NC4=O)c3)CC2)c(CCF)c1 (centres unmarked) [Example 136, N-(3-chloro-5-(2,6-dioxopiperidin-3-ylamino)phenyl)-2-(4-(2-(4-(3-(4-cyano-3-(trifluoromethyl)phenyl)-5,5-dimethyl-4-oxo-2-thioxoimidazolidin-1-yl)-2-(2-fluoroethyl)phenoxy)ethyl)piperazin-1-yl)acetamide]	* (0<Y<=25%)	< 100 nM
CC1(C)C(=O)N(c2cnc(C#N)c(C(F)(F)F)c2)C(=S)N1c1ccc(OCCN2CCN(CC(=O)Nc3cc(F)cc(NC4CCC(=O)NC4=O)c3)CC2)c(CC(F)F)c1 (centres unmarked) [Example 68, 2-(4-(2-(4-(3-(6-cyano-5-(trifluoromethyl)pyridin-3-yl)-5,5-dimethyl-4-oxo-2-thioxoimidazolidin-1-yl)-2-(2,2-difluoroethyl)phenoxy)ethyl)piperazin-1-yl)-N-(3-(2,6-dioxopiperidin-3-ylamino)-5-fluorophenyl)acetamide]	* (0<Y<=25%)	< 100 nM
CCc1cc(N2C(=S)N(c3ccc(C#N)c(C(F)(F)F)c3)C(=O)C2(C)C)ccc1OCCN1C[C@H](C)N(CC(=O)Nc2cccc(NC3CCC(=O)NC3=O)c2)[C@@H](C)C1 (stereo partly drawn) [Example 146, 2-((2S,6S)-4-(2-(4-(3-(4-cyano-3-(trifluoromethyl)phenyl)-5,5-dimethyl-4-oxo-2-thioxoimidazolidin-1-yl)-2-ethylphenoxy)ethyl)-2,6-dimethylpiperazin-1-yl)-N-(3-(2,6-dioxopiperidin-3-ylamino)phenyl)acetamide]	* (0<Y<=25%)	< 100 nM
CCc1cc(N2C(=S)N(c3cnc(C#N)c(C(F)(F)F)c3)C(=O)C23CCC3)ccc1OCCN1CCN(CC(=O)Nc2cc(F)cc(NC3CCC(=O)NC3=O)c2)[C@H](C)C1 (stereo partly drawn) [Example 107, 2-((R)-4-(2-(4-(7-(6-cyano-5-(trifluoromethyl)pyridin-3-yl)-8-oxo-6-thioxo-5,7-diazaspiro[3.4]octan-5-yl)-2-ethylphenoxy)ethyl)-2-methylpiperazin-1-yl)-N-(3-(2,6-dioxopiperidin-3-ylamino)-5-fluorophenyl)acetamide]	* (0<Y<=25%)	< 100 nM
CCc1cc(N2C(=S)N(c3ccc(C#N)c(C(F)(F)F)c3)C(=O)C23CCC3)ccc1OCCN1CCN(CC(=O)Nc2cc(F)cc(NC3CCC(=O)NC3=O)c2)[C@H](C)C1 (stereo partly drawn) [Example 104, 2-((R)-4-(2-(4-(7-(4-cyano-3-(trifluoromethyl)phenyl)-8-oxo-6-thioxo-5,7-diazaspiro[3.4]octan-5-yl)-2-ethylphenoxy)ethyl)-2-methylpiperazin-1-yl)-N-(3-(2,6-dioxopiperidin-3-ylamino)-5-fluorophenyl)acetamide]	* (0<Y<=25%)	< 100 nM
C[C@@H]1CN(CCOc2ccc(N3C(=S)N(c4ccc(C#N)c(Cl)c4)C(=O)C3(C)C)cc2C2CC2)C[C@H](C)N1CC(=O)Nc1cc(Cl)cc(NC2CCC(=O)NC2=O)c1 (stereo partly drawn) [Example 220, 2-((2S,6R)-4-(2-(4-(3-(3-chloro-4-cyanophenyl)-5,5-dimethyl-4-oxo-2-thioxoimidazolidin-1-yl)-2-cyclopropylphenoxy)ethyl)-2,6-dimethylpiperazin-1-yl)-N-(3-chloro-5-(2,6-dioxopiperidin-3-ylamino)phenyl)acetamide]	** (25%<Y<=35%)	< 100 nM
CCc1cc(N2C(=S)N(c3cnc(C#N)c(C(F)(F)F)c3)C(=O)C2(C)C)ccc1OCCN1CCN([C@@H](C)C(=O)Nc2cccc(NC3CCC(=O)NC3=O)c2)CC1 (stereo partly drawn) [Example 118, (2S)-2-(4-(2-(4-(3-(6-cyano-5-(trifluoromethyl)pyridin-3-yl)-5,5-dimethyl-4-oxo-2-thioxoimidazolidin-1-yl)-2-ethylphenoxy)ethyl)piperazin-1-yl)-N-(3-(2,6-dioxopiperidin-3-ylamino)phenyl)propanamide]	* (0<Y<=25%)	< 100 nM
CC1(C)C(=O)N(c2cnc(C#N)c(C(F)(F)F)c2)C(=S)N1c1ccc(OCCN2CCN(CC(=O)Nc3cccc(NC4CCC(=O)NC4=O)c3)CC2)cc1 (centres unmarked) [Example 2, hydrochloride]	** (25%<Y<=35%)	< 100 nM
C[C@@H]1CN(CCOc2ccc(N3C(=S)N(c4cnc(C#N)c(C(F)(F)F)c4)C(=O)C34CCC4)cc2C2CC2)C[C@H](C)N1CC(=O)Nc1cc(NC2CCC(=O)NC2=O)ccc1F (stereo partly drawn) [Example 198, 2-((2S,6R)-4-(2-(4-(7-(6-cyano-5-(trifluoromethyl)pyridin-3-yl)-8-oxo-6-thioxo-5,7-diazaspiro[3.4]octan-5-yl)-2-cyclopropylphenoxy)ethyl)-2,6-dimethylpiperazin-1-yl)-N-(5-(2,6-dioxopiperidin-3-ylamino)-2-fluorophenyl)acetamide]	* (0<Y<=25%)	< 100 nM
CCc1cc(N2C(=S)N(c3cnc(C#N)c(C(F)(F)F)c3)C(=O)C2(C)C)ccc1OCCN1C[C@H]2CC[C@@H]1CN2CC(=O)Nc1cccc(NC2CCC(=O)NC2=O)c1 (stereo partly drawn) [Example 183, 2-((1R,4R)-5-(2-(4-(3-(6-cyano-5-(trifluoromethyl)pyridin-3-yl)-5,5-dimethyl-4-oxo-2-thioxoimidazolidin-1-yl)-2-ethylphenoxy)ethyl)-2,5-diazabicyclo[2.2.2]octan-2-yl)-N-(3-(2,6-dioxopiperidin-3-ylamino)phenyl)acetamide]	** (25%<Y<=35%)	100 to 500 nM
CC(C)c1cc(N2C(=S)N(c3ccc(C#N)c(C(F)(F)F)c3)C(=O)C2(C)C)ccc1OCCN1C[C@@H](C)N(CC(=O)Nc2cccc(NC3CCC(=O)NC3=O)c2)[C@@H](C)C1 (stereo partly drawn) [Example 170, 2-((2S,6R)-4-(2-(4-(3-(4-cyano-3-(trifluoromethyl)phenyl)-5,5-dimethyl-4-oxo-2-thioxoimidazolidin-1-yl)-2-isopropylphenoxy)ethyl)-2,6-dimethylpiperazin-1-yl)-N-(3-(2,6-dioxopiperidin-3-ylamino)phenyl)acetamide]	* (0<Y<=25%)	< 100 nM
CCc1cc(N2C(=S)N(c3ccc(C#N)c(C(F)(F)F)c3)C(=O)C2(C)C)ccc1O[C@@H](C)CN1C[C@@H](C)N(CC(=O)Nc2cccc(NC3CCC(=O)NC3=O)c2)[C@@H](C)C1 (single isomer, unassigned) [Example 242]	*** (35%<Y<50%)	500 to 1000 nM
CC1(C)C(=O)N(c2ccc(C#N)c(C(F)(F)F)c2)C(=S)N1c1ccc(OCCN2CCN(CC(=O)Nc3cc(Cl)cc(NC4CCC(=O)NC4=O)c3)CC2)c(F)c1 (centres unmarked) [Example 4, hydrochloride]	* (0<Y<=25%)	< 100 nM
CCc1cc(N2C(=S)N(c3ccc(C#N)c(C(F)(F)F)c3)C(=O)C2(C)C)ccc1OCCN1CCN(CC(=O)Nc2cc(F)cc(NC3CCC(=O)NC3=O)c2)CC1 (centres unmarked) [Example 61, 2-(4-(2-(4-(3-(4-cyano-3-(trifluoromethyl)phenyl)-5,5-dimethyl-4-oxo-2-thioxoimidazolidin-1-yl)-2-ethylphenoxy)ethyl)piperazin-1-yl)-N-(3-(2,6-dioxopiperidin-3-ylamino)-5-fluorophenyl)acetamide]	* (0<Y<=25%)	< 100 nM
CCc1cc(N2C(=S)N(c3ccc(C#N)c(C(F)(F)F)c3)C(=O)C2(C)C)ccc1OCCN1CCN(CC(=O)Nc2cc(Cl)cc(NC3CCC(=O)NC3=O)c2)CC1 (centres unmarked) [Example 40, hydrochloride]	* (0<Y<=25%)	< 100 nM
CC(C)c1cc(N2C(=S)N(c3ccc(C#N)c(C(F)(F)F)c3)C(=O)C2(C)C)ccc1OCCN1CCN(CC(=O)Nc2cc(Cl)cc(NC3CCC(=O)NC3=O)c2)CC1 (centres unmarked) [Example 94, N-(3-chloro-5-(2,6-dioxopiperidin-3-ylamino)phenyl)-2-(4-(2-(4-(3-(4-cyano-3-(trifluoromethyl)phenyl)-5,5-dimethyl-4-oxo-2-thioxoimidazolidin-1-yl)-2-isopropylphenoxy)ethyl)piperazin-1-yl)acetamide]	** (25%<Y<=35%)	100 to 500 nM
